The numbers were not newly measured in patent US6959708B1, “Method for co-application of gases and drugs to potentiate their action in relieving headaches, angina and other ailments” (Capnia, Incorporated, priority 1999, dated 2005), which cites them from elsewhere.

Series [1] has as its system transpulmonary gradient and pulmonary vascular resistance. To be noted: inhaled low dose.
The subject of a further series is pulmonary hypertension. The conditions noted are these: in vivo.
Series [2] concerns serotonin-induced bronchial smooth muscle contraction.
In series [3] the test system is central and peripheral airways. To be noted: asthmatic adults.
The mark [4] stands for this setting: co-application of a 10% CO2 concentration.
Where [5] appears, read: drug alone, without CO2 co-application.

Read-outs that look alike come from different tables or passages of the source.

nitric oxide [NO]: in series [1], the pulmonary vasoselectivity entry is “highly pulmonary vasoselective”. For the same compound, in series [1] (in vivo and clinical tests), the “reduction of transpulmonary gradient and pulmonary vascular resistance compared with sodium nitroprusside and prostacyclin” value is “as effective as sodium nitroprusside and prostacyclin”. In addition, the “effect on pulmonary hypertension” value with pulmonary hypertension was “reverse pulmonary hypertension”.

As for `C[N+](C)(C)CCCCCC[N+](C)(C)C` [hexamethonium], the “inhibition of serotonin-induced bronchial smooth muscle contraction” value was 67% in series [2] (setting [4]) and 37% in series [2] (setting [5]).

Regarding `O=C=O` [CO2, carbon dioxide], the effect on airways result in series [3] was “relax both central and peripheral airways”.

`CN1[C@@H]2CC[C@H]1C[C@@H](OC(=O)C(CO)c1ccccc1)C2` (some centres unmarked) [atropine]: the “inhibition of serotonin-induced bronchial smooth muscle contraction” value in series [2] (setting [4]) was 62%; in series [2] (setting [5]) it was 46%.
